# Measured values as given in patent US20210361673A1, “COMPOSITIONS AND METHODS OF TREATING VIRAL INFECTIONS” (Lipocine Inc., priority 2020, published 2021).
# Marks after values point to notes of the source that are not given here.
# Test: Mean marker change from baseline after treatment (TU, TT 14-day, TD single dose, TU depot injection, topical T after 7 days)
# Type: in vivo
# Conditions: for Cmax to mean Cave ratio: range calculated from the average low and average high for the 5 arms tested
# Source text: The mean marker change from baseline in the foregoing tables can be measured at various times including: hours after treatment commences, 7 to 14 days after treatment commences, and during treatment.
# A-E are all the 14-day timepoint
# TU Depot Injection—after Single Dose
smiles,measurement,setting,value
"CCCCCCCCCCCCC(=O)O[C@H]1CC[C@H]2[C@@H]3CCC4=CC(=O)CC[C@]4(C)[C@H]3CC[C@]12C [TT, testosterone tridecanoate]","Mean marker change from baseline in serum (e.g. IL-2, IL-6, TNF-Alpha, CRP, SHBG, MCP-1, AST, ALT, ALP)",total daily TT dose 300 mg,−5% to −35%
same,Cmax to mean Cave ratio,total daily TT dose 300 mg,1.72-3.08*
same,"Mean marker change from baseline in serum (e.g. IL-2, IL-6, TNF-Alpha, CRP, SHBG, MCP-1, AST, ALT, ALP)",total daily TT dose 2700 mg,−5% to −35%
same,Cmax to mean Cave ratio,total daily TT dose 2700 mg,1.72-3.09*
